From patent US20050250801A1, “Method of treating cancer with azaspirane compositions” (priority 2003, published 2005)
Read-outs that look alike come from different tables or passages of the source.

Assays:
HUVEC cells [1] = experiment: Inhibition of HUVEC proliferation (WST-1, Example 2); type: cell-based; settings: Homo sapiens
CaCo-2 cells = experiment: Induction of apoptosis, DNA fragmentation analysis, CaCo-2; type: cell-based, human; settings: 12 hours treatment
Method: (§1) T84, CaCo-2 and HUVEC cells, respectively, were grown in 100 mm dishes for 7-9 days, culture media for HUVEC was EGM-2 (Clonetics, BioWhitaker Co.), until they reached semi-confluency. Cell monolayers were then treated for 12 hours (CaCo-2 and T84) and 16 hours (HUVEC), respectively, at the indicated concentrations of N,N,-diethyl-8,8-dipropyl-2-azaspiro[4,5]decane-2-propanamine dimaleate (Compound 1) in culture media. Cells were collected by trypsinization and the apoptotic DNA was isolated from these cells following the instructions of the DNA fragmentation analysis kit (Boehringer Mannheim Corp., Indianapolis, Ind.). The apoptotic DNA was evaluated using 1.5% agarose gel electrophoresis followed by staining with ethidium bromide. M denotes the lane containing molecular weight markers of DNA.

HUVEC cells [2] = experiment: Induction of apoptosis, DNA fragmentation analysis, HUVEC; type: cell-based, human; settings: 16 hours treatment
Method: as §1

HUVEC [3] = experiment: HUVEC growth inhibition assay (crystal violet); type: cell-based; settings: Homo sapiens, 72 hours, read-out: IC50 Concentration, Growth Inhibition
Method: HUVEC (1.5×10^3) are plated in a 96-well plate in 100 μl of EBM-2 (Clonetic # CC3162). After 24 hours (day 0), a test solution of Compound 1 (100 μl) is added to each well at 2× the desired concentration (5-7 concentration levels) in EBM-2 medium. On day 0, one plate is stained with 0.5% crystal violet in 20% methanol for 10 minutes, rinsed with water, and air-dried. The remaining plates are incubated for 72 hours at 37° C. After 72 hours, plates are stained with 0.5% crystal violet in 20% methanol, rinsed with water and air-dried. The stain is eluted with 1:1 solution of ethanol: 0.1 M sodium citrate (including day 0 plate), and absorbance is measured at 540 nm with an ELISA reader (Dyriatech Laboratories). Day 0 absorbance is subtracted from the 72 hour plates and data is plotted as percentage of control proliferation (vehicle treated cells).

HUVEC [4] = experiment: HUVEC cord formation assay (Matrigel); type: cell-based; settings: Homo sapiens, 24 hour incubation, read-out: IC50 Concentration, Cord Formation
Method: Matrigel (60 μl of 10 mg/ml; Collaborative Lab # 35423) was placed in each well of an ice-cold 96-well plate. The plate is allowed to sit at room temperature for 15 minutes then incubated at 37° C. for 30 minutes to permit the matrigel to polymerize. In the mean time, HUVEC are prepared in EGM-2 (Clonetic# CC3162) at a concentration of 2×10^5 cells/ml. Test solutions of Compound I are prepared at 2× the desired concentration (5 concentration levels) in the same medium. The cells (500 μl) and 2× Compound 1 (500 μl) solution are mixed and 200 μl of this suspension are placed in duplicate on the polymerized matrigel. After a 24 hour incubation, triplicate pictures are taken for each concentration using a Bioquant Image Analysis system. Drug effect (IC50) is assessed compared to untreated controls by measuring the length of cords formed and number of junctions, and is reported in Table 8.

Various Tumor Cell Lines = experiment: NCI in vitro SRB tumor cell line assay, panel summary; type: cell-based
Method: (§2) An in vitro assay which tested the ability of N,N,-diethyl-8,8-dipropyl-2-azaspiro[4,5]decane-2-propanamine dimaleate (Compound 1) to inhibit the growth of known cancer cell lines was performed by the National Cancer Institute in accordance with standard procedures. See: Lin, Z. X., Hoult, J. R., and Raman, A. Sulphorhodamine B assay for measuring proliferation of a pigmented melanocyte cell line and its application to the evaluation of crude drugs used in the treatment of vitiligo. J Ethnopharmacol. 66: 141-150, 1999. Briefly, selected tumor cell lines were cultured in media containing five different concentrations of Compound 1. After 48 hours of continuous exposure, a sulforhodamine B (SRB) assay was used to estimate cell viability or growth via optical measurements.
(§3) From the measurements, the following values were determined: 1) the concentration of Compound 1 at which a tumor cell growth inhibition of 50% (relative to control) occurs (GI50), 2) the concentration of Compound 1 at which no growth occurs (total growth inhibition, TGI), and 3) the concentration of Compound 1 at which the […] (LC 50). […] FIG. 6 illustrates, graphically, tumor cell growth as a function of Compound 1 concentration of the scanned tumor cell lines.

IGROV1 = experiment: NCI in vitro SRB assay, Ovarian Cancer; type: cell-based
Method: as §2, §3

OVCAR-3 = experiment: NCI in vitro SRB assay, Ovarian Cancer; type: cell-based
Method: as §2, §3

OVCAR-4 = experiment: NCI in vitro SRB assay, Ovarian Cancer; type: cell-based
Method: as §2, §3

OVCAR-5 = experiment: NCI in vitro SRB assay, Ovarian Cancer; type: cell-based
Method: as §2, §3

OVCAR-8 = experiment: NCI in vitro SRB assay, Ovarian Cancer; type: cell-based
Method: as §2, §3

NCI/ADR-RES = experiment: NCI in vitro SRB assay, Breast Cancer; type: cell-based; settings: for GI50: Homo sapiens
Method: as §2, §3

CCCC1(CCC)CCC2(CCN(CCCN(CC)CC)C2)CC1.O=C(O)/C=C\C(=O)O.O=C(O)/C=C\C(=O)O [Compound 1, N,N,-diethyl-8,8-dipropyl-2-azaspiro[4,5]decane-2-propanamine dimaleate]
IC50 (HUVEC cells [1]): 1250 to 2500 nM | DNA ladder formation (apoptosis) (CaCo-2 cells): formation of DNA laddering in a dose-dependent manner | DNA ladder formation (apoptosis) (HUVEC cells [2]): formation of DNA laddering in a dose-dependent manner | IC50 (HUVEC [3]): 2050 nM | IC50 (HUVEC [4]): 2630 nM | Log10 GI50, MG_MID (Various Tumor Cell Lines; all cell lines of Table 2): −5.93 | Log10 TGI, Delta (Various Tumor Cell Lines; all cell lines of Table 2): 1.18 | Log10 TGI, MG_MID (Various Tumor Cell Lines; all cell lines of Table 2): −5.45 | Log10 TGI, Range (Various Tumor Cell Lines; all cell lines of Table 2): 2.62 | CC50 (Various Tumor Cell Lines; read-out: Log10 LC50, MG_MID (converted)): 8710 nM | CC50 (IGROV1; Homo sapiens, IGROV-1, read-out: Log10 LC50 (converted)): > 100000 nM | GI50 (IGROV1; Homo sapiens, IGROV-1, IGROV1, read-out: Log10 GI50 (converted)): 2450 nM | Log10 TGI (IGROV1; IGROV1): >−4.00 | Log10 TGI (OVCAR-3): −5.21 | GI50 (OVCAR-3; Homo sapiens, read-out: Log10 GI50 (converted)): 2340 nM | CC50 (OVCAR-4; Homo sapiens, OVCAR-4, read-out: Log10 LC50 (converted)): 6610 nM | GI50 (OVCAR-4; Homo sapiens, OVCAR-4, read-out: Log10 GI50 (converted)): 1620 nM | Log10 TGI (OVCAR-4; OVCAR-4): −5.49 | CC50 (OVCAR-5; Homo sapiens, OVCAR-5, read-out: Log10 LC50 (converted)): 7080 nM | GI50 (OVCAR-5; Homo sapiens, OVCAR-5, read-out: Log10 GI50 (converted)): 2400 nM | Log10 TGI (OVCAR-5; OVCAR-5): −5.39 | CC50 (OVCAR-8; Homo sapiens, OVCAR-8, read-out: Log10 LC50 (converted)): > 100000 nM | GI50 (OVCAR-8; Homo sapiens, OVCAR-8, read-out: Log10 GI50 (converted)): 2690 nM | Log10 TGI (OVCAR-8; OVCAR-8): −4.92 | Log10 TGI (NCI/ADR-RES): −5.40 | TGI (NCI/ADR-RES): 3950 nM | GI50 (NCI/ADR-RES; read-out: GI50): 1830 nM | GI50 (NCI/ADR-RES; read-out: Log10 GI50 (converted)): 1820 nM | Mean Optical Densities (NCI/ADR-RES; Log10 conc -4.0 Moles/L): 0.081 | Percent Growth (NCI/ADR-RES; Log10 conc -4.0 Moles/L): −85% | Mean Optical Densities (NCI/ADR-RES; Log10 conc -5.0 Moles/L): 0.208 | Percent Growth (NCI/ADR-RES; Log10 conc -5.0 Moles/L): −61% | Mean Optical Densities (NCI/ADR-RES; Log10 conc -6.0 Moles/L): 1.220 | Percent Growth (NCI/ADR-RES; Log10 conc -6.0 Moles/L): 89% | Mean Optical Densities (NCI/ADR-RES; Log10 conc -7.0 Moles/L): 1.227 | Percent Growth (NCI/ADR-RES; Log10 conc -7.0 Moles/L): 90% | Mean Optical Densities (NCI/ADR-RES; Log10 conc -8.0 Moles/L): 1.254 | Percent Growth (NCI/ADR-RES; Log10 conc -8.0 Moles/L): 94%
